Measured values from PMC1533168 (Environmental Health Perspectives, 1998).
“And” between values parts separate entries of the source, which are not always exact repeats. Equal values may be shown once. Read-outs that look alike come from different tables or passages of the source.

Tests used:
[1] = cited from earlier work
[2] = Controlled chamber inhalation exposure: trichloroethene in venous blood; type: in vivo, human; conditions: for Blood model value at t = 0 (Blood, meas): elimination model; for Blood model value at t = 0 (Blood, meas) / Blood model value at t = 240: end of 100 ppmv 4 hr inhalation; for A coefficient (first), blood elimination model / Blood, 1st compartment half-life, elimination / A2 coefficient, blood elimination model: elimination period after 100 ppmv 4 hr inhalation; for Blood model value at t = 240: uptake model; for Blood, 1st compartment half-life, uptake / k1 time constant, blood uptake model: uptake period, 100 ppmv 4 hr inhalation; for k1 time constant, blood uptake model: time in minutes
[3] = type: in vivo, human; conditions: for Calc:meas ratio of peak blood level: elimination curves
[4] = type: in vivo, human; conditions: for A2 coefficient, breath elimination model / A1 coefficient, breath elimination model / Breath, 1st compartment half-life, elimination / Breath, 2nd compartment half-life, elimination / Breath, 3rd compartment half-life, elimination: elimination period after 100 ppmv 4 hr inhalation; for Breath model value at t = 0: elimination model; for Breath model value at t = 0 / Breath model value at t = 240: end of 100 ppmv 4 hr inhalation; for Breath model value at t = 240: uptake model; for Breath, 1st compartment half-life, uptake / k1 time constant, breath uptake model: uptake period, 100 ppmv 4 hr inhalation
[5] = measured in vitro, ref Fiserova-Bergerova and Diaz (24)
[6] = all subjects, 100 ppmv 4 hr inhalation and 20 hr purified air
[7] = Subject 108, end of 100 ppmv 4 hr inhalation
[8] = Subject 109, end of 100 ppmv 4 hr inhalation
[9] = Subject 110, end of 100 ppmv 4 hr inhalation
[10] = Subject 208, end of 100 ppmv 4 hr inhalation
[11] = Subject 209, end of 100 ppmv 4 hr inhalation
[12] = Subject 210, end of 100 ppmv 4 hr inhalation
[13] = all individual data point pairs, all subjects

ClC=C(Cl)Cl [trichloroethene]
Blood/air partition coefficient [1, 5]: 8.1 | Partition coefficient for lung tissue [1, 5]: 14.0 | Blood/air partition coefficient ([1]; measured in vitro, ref Gargas et al. (22)): 8.11 | Blood/air partition coefficient ([1]; measured in vitro, ref Lindqvist (23)): 15.7 | Blood/breath partition coefficient, accepted literature value ([1]; used in human pharmacokinetic model, ref Allen and Fisher (26)): 9.2 | Pulmonary partition coefficient ([1]; value used, ref Fernandez et al. (25)): 9 | Blood model value at t = 0 (Blood, meas) ([2]; Subject 108): 1,170.1 pg/I and 1,170 pg/I | A coefficient (first), blood elimination model ([2]; Subject 108): 820.7 micrograms per liter | Blood, 1st compartment half-life, elimination ([2]; Subject 108): 23.54 min | Blood model value at t = 240 ([2]; Subject 108): 1,317 pg/I | Blood, 1st compartment half-life, uptake ([2]; Subject 108): 26.60 min | k1 time constant, blood uptake model ([2]; Subject 108): 0.02606 | Blood model value at t = 0 (Blood, meas) ([2]; Subject 109): 2,161.0 pg/I and 2,161 pg/I | A2 coefficient, blood elimination model ([2]; Subject 109): 287.0 micrograms per liter | A coefficient (first), blood elimination model ([2]; Subject 109): 1874 micrograms per liter | Blood, 1st compartment half-life, elimination ([2]; Subject 109): 17.93 min | Blood model value at t = 240 ([2]; Subject 109): 1,839 pg/I | Blood, 1st compartment half-life, uptake ([2]; Subject 109): 64.90 min | k1 time constant, blood uptake model ([2]; Subject 109): 0.01068 | Blood model value at t = 0 (Blood, meas) ([2]; Subject 110): 1,481 pg/I and 1,480.9 pg/I | A2 coefficient, blood elimination model ([2]; Subject 110): 979.1 micrograms per liter | A coefficient (first), blood elimination model ([2]; Subject 110): 501.8 micrograms per liter | Blood, 1st compartment half-life, elimination ([2]; Subject 110): 6.86 min | Blood model value at t = 240 ([2]; Subject 110): 1,377 pg/I | Blood, 1st compartment half-life, uptake ([2]; Subject 110): 45.66 min | k1 time constant, blood uptake model ([2]; Subject 110): 0.01518 | Blood model value at t = 0 (Blood, meas) ([2]; Subject 208): 1,284.6 pg/I and 1,285 pg/I | A2 coefficient, blood elimination model ([2]; Subject 208): 385.1 micrograms per liter | A coefficient (first), blood elimination model ([2]; Subject 208): 899.5 micrograms per liter | Blood, 1st compartment half-life, elimination ([2]; Subject 208): 12.49 min | Blood model value at t = 240 ([2]; Subject 208): 1,181 pg/I | Blood, 1st compartment half-life, uptake ([2]; Subject 208): 24.65 min | k1 time constant, blood uptake model ([2]; Subject 208): 0.02812 | Blood model value at t = 0 (Blood, meas) ([2]; Subject 209): 1,641.0 pg/I and 1,641 pg/I | A2 coefficient, blood elimination model ([2]; Subject 209): 238.0 micrograms per liter | A coefficient (first), blood elimination model ([2]; Subject 209): 1403 micrograms per liter | Blood, 1st compartment half-life, elimination ([2]; Subject 209): 21.74 min | Blood model value at t = 240 ([2]; Subject 209): 1,608 pg/I | Blood, 1st compartment half-life, uptake ([2]; Subject 209): 47.12 min | k1 time constant, blood uptake model ([2]; Subject 209): 0.01471 | Uptake curve model plateau coefficient, blood ([2]; Subject 210, Figure 1A): 1132 micrograms per liter | Blood model value at t = 0 (Blood, meas) ([2]; Subject 210): 1,183 pg/I and 1,182.9 pg/I | A2 coefficient, blood elimination model ([2]; Subject 210): 264.4 micrograms per liter and 264 micrograms per liter | A coefficient (first), blood elimination model ([2]; Subject 210): 918.5 micrograms per liter and 918 micrograms per liter | Blood, 1st compartment half-life, elimination ([2]; Subject 210): 15.39 min | Blood model value at t = 240 ([2]; Subject 210): 1,128 pg/I | Blood, 1st compartment half-life, uptake ([2]; Subject 210): 28.85 min | k1 time constant, blood uptake model ([2]; Subject 210): 0.02403 | Relevant data range for blood samples [2, 6]: 100-1,600 pg/I | In vivo blood/breath partition coefficient, elimination-only data set ([3]; Mean ± SE of 6 subjects, end of 100 ppmv 4 hr inhalation): 9.69 | Calc:meas ratio of peak blood level ([3]; Subject 108): 0.76 | Blood:breath ratio at end of exposure, calculated from elimination models [3, 7]: 12.11 | Blood:breath ratio at end of exposure, calculated from uptake models [3, 7]: 12.45 | Calc:meas ratio of peak blood level ([3]; Subject 109): 0.75 | Blood:breath ratio at end of exposure, calculated from elimination models [3, 8]: 12.31 | Blood:breath ratio at end of exposure, calculated from uptake models [3, 8]: 14.12 | Calc:meas ratio of peak blood level ([3]; Subject 110): 1.01 | Blood:breath ratio at end of exposure, calculated from elimination models [3, 9]: 9.11 | Blood:breath ratio at end of exposure, calculated from uptake models [3, 9]: 11.96 | Calc:meas ratio of peak blood level ([3]; Subject 208): 0.93 | Blood:breath ratio at end of exposure, calculated from elimination models [3, 10]: 9.89 | Blood:breath ratio at end of exposure, calculated from uptake models [3, 10]: 11.97 | Calc:meas ratio of peak blood level ([3]; Subject 209): 0.90 | Blood:breath ratio at end of exposure, calculated from elimination models [3, 11]: 10.18 | Blood:breath ratio at end of exposure, calculated from uptake models [3, 11]: 10.94 | Calc:meas ratio of peak blood level ([3]; Subject 210): 1.51 | Blood:breath ratio at end of exposure, calculated from elimination models [3, 12]: 6.07 | Blood:breath ratio at end of exposure, calculated from uptake models [3, 12]: 9.99 | Blood/breath regression slope (mean blood/breath ratio), elimination phase [3, 13]: 29.00 | Blood/breath regression slope (mean blood/breath ratio), uptake phase [3, 13]: 10.93 | Inspired trichloroethene excreted through exhalation ([3]; at equilibrium): about 22% | Share of the expired trichloroethene coming from the blood (first) compartment ([3]; elimination phase after 4-hr exposure): about 75% | In vivo blood/breath partition coefficient, overall mean ([3]; experiment time = 0, all subjects, uptake and elimination experiments): 10.8 | Mean time constant for breath relative to its blood counterpart (times as large) ([3]; initial 10 min of elimination, first compartment dominant): 10 | Time constant for breath relative to that for blood (times as large) ([3]; uptake portion of the experiment): about 2.5 | A2 coefficient, breath elimination model ([4]; Mean ± SE of 6 subjects): 28.67 6.26 micrograms per liter | Breath model value at t = 0 ([4]; Subject 108): 96.6 pg/I | A1 coefficient, breath elimination model ([4]; Subject 108): 76.7 micrograms per liter | A2 coefficient, breath elimination model ([4]; Subject 108): 15.21 micrograms per liter | Breath, 1st compartment half-life, elimination ([4]; Subject 108): 4.40 min | Breath, 2nd compartment half-life, elimination ([4]; Subject 108): 54.15 min | Breath, 3rd compartment half-life, elimination ([4]; Subject 108): 424.98 min | Breath model value at t = 240 ([4]; Subject 108): 105.8 pg/I | Breath, 1st compartment half-life, uptake ([4]; Subject 108): 9.90 min | k1 time constant, breath uptake model ([4]; Subject 108, time in minutes): 0.07004 | Breath model value at t = 0 ([4]; Subject 109): 175.5 pg/I | A1 coefficient, breath elimination model ([4]; Subject 109): 115.8 micrograms per liter | A2 coefficient, breath elimination model ([4]; Subject 109): 53.76 micrograms per liter | Breath, 1st compartment half-life, elimination ([4]; Subject 109): 1.15 min | Breath, 2nd compartment half-life, elimination ([4]; Subject 109): 27.16 min | Breath, 3rd compartment half-life, elimination ([4]; Subject 109): 541.52 min | Breath model value at t = 240 ([4]; Subject 109): 130.3 pg/I | Breath, 1st compartment half-life, uptake ([4]; Subject 109): 9.59 min | k1 time constant, breath uptake model ([4]; Subject 109, time in minutes): 0.07229 | Breath model value at t = 0 ([4]; Subject 110): 162.5 pg/I | A1 coefficient, breath elimination model ([4]; Subject 110): 146.2 micrograms per liter | A2 coefficient, breath elimination model ([4]; Subject 110): 13.41 micrograms per liter | Breath, 1st compartment half-life, elimination ([4]; Subject 110): 4.07 min | Breath, 2nd compartment half-life, elimination ([4]; Subject 110): 88.18 min | Breath, 3rd compartment half-life, elimination ([4]; Subject 110): 1,269.50 min | Breath model value at t = 240 ([4]; Subject 110): 115.2 pg/I | Breath, 1st compartment half-life, uptake ([4]; Subject 110): 39.05 min | k1 time constant, breath uptake model ([4]; Subject 110, time in minutes): 0.01775 | Breath model value at t = 0 ([4]; Subject 208): 129.9 pg/I | A1 coefficient, breath elimination model ([4]; Subject 208): 104.4 micrograms per liter | A2 coefficient, breath elimination model ([4]; Subject 208): 21.21 micrograms per liter | Breath, 1st compartment half-life, elimination ([4]; Subject 208): 0.97 min | Breath, 2nd compartment half-life, elimination ([4]; Subject 208): 29.98 min | Breath, 3rd compartment half-life, elimination ([4]; Subject 208): 396.31 min | Breath model value at t = 240 ([4]; Subject 208): 98.6 pg/I | Breath, 1st compartment half-life, uptake ([4]; Subject 208): 9.92 min | Breath model value at t = 0 ([4]; Subject 209): 161.2 pg/I | A1 coefficient, breath elimination model ([4]; Subject 209): 114.1 micrograms per liter | A2 coefficient, breath elimination model ([4]; Subject 209): 36.96 micrograms per liter | Breath, 1st compartment half-life, elimination ([4]; Subject 209): 2.68 min | Breath, 2nd compartment half-life, elimination ([4]; Subject 209): 21.44 min | Breath, 3rd compartment half-life, elimination ([4]; Subject 209): 262.26 min | Breath model value at t = 240 ([4]; Subject 209): 147.0 pg/I | Breath, 1st compartment half-life, uptake ([4]; Subject 209): 21.42 min | k1 time constant, breath uptake model ([4]; Subject 209, time in minutes): 0.03236 | Uptake curve model plateau coefficient, breath ([4]; Subject 210, Figure 1B): 113 micrograms per liter | k3 time constant, breath elimination model ([4]; Subject 210, Figure 1D, time in minutes): .00061 | Breath model value at t = 0 ([4]; Subject 210): 194.7 pg/I | A1 coefficient, breath elimination model ([4]; Subject 210): 156.8 micrograms per liter and 157 micrograms per liter | A2 coefficient, breath elimination model ([4]; Subject 210): 31.47 micrograms per liter and 31.5 micrograms per liter | Breath, 1st compartment half-life, elimination ([4]; Subject 210): 1.03 min | Breath, 2nd compartment half-life, elimination ([4]; Subject 210): 40.30 min | Breath, 3rd compartment half-life, elimination ([4]; Subject 210): 1,145.89 min | Breath model value at t = 240 ([4]; Subject 210): 113.0 pg/I | Breath, 1st compartment half-life, uptake ([4]; Subject 210): 18.94 min | k1 time constant, breath uptake model ([4]; Subject 210, time in minutes): 0.0366 | Relevant data range for breath samples [4, 6]: <1-150 pg/I
